Results reported in patent US20220364989A1, “METHOD FOR MEASURING PHOTOTOXICITY OR PHOTOALLERGY AND REAGENT FOR USE THEREIN” (FUJIFILM Corporation, priority 2018, published 2022).
Like-named read-outs stand apart in the source and are kept apart here.

What was measured:
[1] = 24 h, 0.25 mmol/L, pH 8
[2] = 24 h, 0.25 mmol/L, pH 10.2
[3] = cited from earlier work
[4] = cited from earlier work; remark: listed apart in the source
[5] = 24 h, 0.25 mmol/L
[6] = 24 h, 0.25 mmol/L, pH 8; remark: listed apart in the source
[7] = 24 h, 0.25 mmol/L, pH 10.2; remark: listed apart in the source
[8] = NAC depletion under and without ultraviolet irradiation, HPLC with UV detection (281 nm); conditions: for NAC Depletion (%) without light irradiation: 25° C. 24 hours light-shielded; for NAC Depletion (%) without light irradiation / NAC Depletion (%) under light irradiation: test substance solution 1 mmol/L; for NAC Depletion (%) under light irradiation: 2,000 μW/cm^2 for 1 hour then 25° C. 23 hours
[9] = NAL depletion under and without ultraviolet irradiation, HPLC with UV detection (281 nm); conditions: for NAL Depletion (%) without light irradiation: 25° C. 24 hours light-shielded; for NAL Depletion (%) without light irradiation / NAL Depletion (%) under light irradiation: test substance solution 1 mmol/L; for NAL Depletion (%) under light irradiation: 2,000 μW/cm^2 for 1 hour then 25° C. 23 hours
[10] = Average score of NAC and NAL depletion and phototoxicity or photoallergy determination, UV detection; conditions: for Average score (%) under light irradiation / Average score (%) without light irradiation: average of NAC and NAL depletion
[11] = Average score of NAC and NAL depletion and phototoxicity or photoallergy determination, fluorescence detection; conditions: for Average score (%): without light irradiation
[12] = NAC depletion under and without ultraviolet irradiation, HPLC with fluorescence detection (284 nm excitation, 333 nm fluorescence); conditions: for NAC Depletion (%): without light irradiation
[13] = NAL depletion under and without ultraviolet irradiation, HPLC with fluorescence detection (284 nm excitation, 333 nm fluorescence); conditions: for NAL Depletion (%): without light irradiation
[14] = without light irradiation, single compound
[15] = average of NAC and NAL depletion
[16] = 25° C. 24 hours light-shielded, test substance solution 1 mmol/L
[17] = 2,000 μW/cm^2 for 1 hour then 25° C. 23 hours, test substance solution 1 mmol/L

CCCCC(CC)COC(=O)c1ccc(N(C)C)cc1 (stereo not shown) [No. 19, 2-ethylhexyl p-dimethylaminobenzoate]
NAC Depletion (%) [1]: 98.1%
NAL Depletion (%) [2]: 1.3%
In vivo phototoxicity ([3]; in vivo): Negative
In vivo photoallergy ([4]; in vivo): Positive

Oc1ccc(Cl)cc1Cc1cc(Cl)ccc1O [No. 21, Dichlorophen]
NAC Depletion (%) [1]: 98.5%
NAL Depletion (%) [2]: 14.5%
Average score (%) [5]: 56.5%
In vivo photoallergy ([4]; in vivo): Positive

Cc1ccc2oc(=O)ccc2c1 [compound 2, 6-Methylcoumarin]
Difference in depletion (under light irradiation - without light irradiation) NAC (%) [6]: 95.8%
NAC Depletion (%) under light irradiation [6]: 96.3%
NAC Depletion (%) without light irradiation [6]: 0.5%
Difference in depletion (under light irradiation - without light irradiation) NAL (%) [7]: 5.5%
NAL Depletion (%) under light irradiation [7]: 5.7%
NAL Depletion (%) without light irradiation [7]: 0.2%
In vivo phototoxicity ([3]; reported in References 1 to 3): Positive
In vivo photoallergy ([4]; reported in References 1 and 2): Positive

Nc1ccc(S(N)(=O)=O)cc1 [compound 27, Sulfanilamide]
Difference in depletion (under light irradiation - without light irradiation) NAC (%) [6]: 25.5%
NAC Depletion (%) under light irradiation [6]: 26.1%
NAC Depletion (%) without light irradiation [6]: 0.6%
Difference in depletion (under light irradiation - without light irradiation) NAL (%) [7]: −0.2%
NAL Depletion (%) under light irradiation [7]: 0.0%
NAL Depletion (%) without light irradiation [7]: 0.2%
In vivo photoallergy ([4]; reported in References 1 and 2): Positive

CCOc1ccc2c(C)cc(=O)oc2c1 [compound 29, 4-Methyl-7-ethoxycoumarin]
Difference in depletion (under light irradiation - without light irradiation) NAC (%) [6]: 93.6%
NAC Depletion (%) under light irradiation [6]: 93.6%
NAC Depletion (%) without light irradiation [6]: 0.0%
Difference in depletion (under light irradiation - without light irradiation) NAL (%) [7]: 19.3%
NAL Depletion (%) under light irradiation [7]: 20.3%
NAL Depletion (%) without light irradiation [7]: 1.0%
In vivo photoallergy ([4]; reported in References 1 and 2): Positive

CC(=O)c1ccc2ccccc2c1 [compound 37, Methyl β-naphthyl ketone]
Difference in depletion (under light irradiation - without light irradiation) NAC (%) [6]: 99.4%
NAC Depletion (%) under light irradiation [6]: 100.0%
NAC Depletion (%) without light irradiation [6]: 0.6%
Difference in depletion (under light irradiation - without light irradiation) NAL (%) [7]: 6.9%
NAL Depletion (%) under light irradiation [7]: 8.4%
NAL Depletion (%) without light irradiation [7]: 1.5%

CC(C)O [compound 47]
In vivo phototoxicity ([3]; reported in References 1 to 3): Negative
In vivo photoallergy ([4]; reported in References 1 and 2): Negative
Difference in depletion (under light irradiation - without light irradiation) NAC (%) [8]: 1.7%
NAC Depletion (%) without light irradiation [8]: 0.0%
NAC Depletion (%) under light irradiation [8]: 1.7%
Difference in depletion (under light irradiation - without light irradiation) NAL (%) [9]: −1.2%
NAL Depletion (%) without light irradiation [9]: 1.5%
NAL Depletion (%) under light irradiation [9]: 0.3%
Difference in depletion (under light irradiation - without light irradiation) Average score (%) [10]: 0.2%
Average score (%) under light irradiation [10]: 1.0%
Average score (%) without light irradiation [10]: 0.8%
Difference in depletion (under light irradiation - without light irradiation) Average score (%) ([11]; single compound): −0.1%
Average score (%) ([11]; single compound): 0.3%
Difference in depletion (under light irradiation - without light irradiation) NAC (%) ([12]; single compound): −0.5%
NAC Depletion (%) ([12]; single compound): 0.5%
Difference in depletion (under light irradiation - without light irradiation) NAL (%) ([13]; single compound): 0.3%
NAL Depletion (%) ([13]; single compound): 0.0%

CCCCCCCCCCCCCCCCO [compound 49, Cetyl alcohol]
Difference in depletion (under light irradiation - without light irradiation) NAC (%) [6]: 3.7%
NAC Depletion (%) under light irradiation [6]: 5.5%
NAC Depletion (%) without light irradiation [6]: 1.8%
Difference in depletion (under light irradiation - without light irradiation) NAL (%) [7]: 3.3%
NAL Depletion (%) under light irradiation [7]: 6.1%
NAL Depletion (%) without light irradiation [7]: 2.8%
In vivo phototoxicity ([3]; reported in References 1 to 3): Negative
In vivo photoallergy ([4]; reported in References 1 and 2): Negative

CCO [compound 50]
In vivo phototoxicity ([3]; reported in References 1 to 3): Negative
In vivo photoallergy ([4]; reported in References 1 and 2): Negative
Difference in depletion (under light irradiation - without light irradiation) NAC (%) [8]: 0.4%
NAC Depletion (%) without light irradiation [8]: 0.0%
NAC Depletion (%) under light irradiation [8]: 0.4%
Difference in depletion (under light irradiation - without light irradiation) NAL (%) [9]: −1.3%
NAL Depletion (%) without light irradiation [9]: 1.3%
NAL Depletion (%) under light irradiation [9]: 0.0%
Difference in depletion (under light irradiation - without light irradiation) Average score (%) [10]: −0.5%
Average score (%) under light irradiation [10]: 0.2%
Average score (%) without light irradiation [10]: 0.6%
Difference in depletion (under light irradiation - without light irradiation) Average score (%) ([11]; single compound): −0.1%
Average score (%) ([11]; single compound): 0.1%
Difference in depletion (under light irradiation - without light irradiation) NAC (%) ([12]; single compound): −0.3%
NAC Depletion (%) ([12]; single compound): 0.3%
Difference in depletion (under light irradiation - without light irradiation) NAL (%) ([13]; single compound): 0.0%
NAL Depletion (%) ([13]; single compound): 0.0%

C[S+](C)[O-] [compound 58]
In vivo phototoxicity ([3]; reported in References 1 to 3): Negative
In vivo photoallergy ([4]; reported in References 1 and 2): Negative
Difference in depletion (under light irradiation - without light irradiation) NAC (%) ([8]; single compound): 0.7%
NAC Depletion (%) [8, 14]: 0.0%
Difference in depletion (under light irradiation - without light irradiation) NAL (%) ([9]; single compound): −0.2%
NAL Depletion (%) [9, 14]: 0.2%
Difference in depletion (under light irradiation - without light irradiation) Average score (%) ([10]; single compound): 0.3%
Average score (%) [10, 14]: 0.1%
Difference in depletion (under light irradiation - without light irradiation) Average score (%) [11]: 0.1%
Average score (%) under light irradiation [11, 15]: 0.1%
Average score (%) without light irradiation [11, 15]: 0.0%
Difference in depletion (under light irradiation - without light irradiation) NAC (%) [12]: 0.1%
NAC Depletion (%) without light irradiation [12, 16]: 0.0%
NAC Depletion (%) under light irradiation [12, 17]: 0.2%
Difference in depletion (under light irradiation - without light irradiation) NAL (%) [13]: 0.0%
NAL Depletion (%) without light irradiation [13, 16]: 0.0%
NAL Depletion (%) under light irradiation [13, 17]: 0.0%

Tetrachlorosalicylanilide [compound 12]
In vivo phototoxicity ([3]; reported in References 1 to 3): Positive
In vivo photoallergy ([4]; reported in References 1 and 2): Positive
NAC Depletion (%) without light irradiation [8]: 66.8%
NAC Depletion (%) under light irradiation [8]: −200.9%
Difference in depletion (under light irradiation - without light irradiation) NAL (%) [9]: 77.9%
NAL Depletion (%) without light irradiation [9]: 4.2%
NAL Depletion (%) under light irradiation [9]: 82.1%
Average score (%) without light irradiation [10]: 35.5%
Difference in depletion (under light irradiation - without light irradiation) Average score (%) ([11]; single compound): 60.4%
Average score (%) ([11]; single compound): 31.5%
Difference in depletion (under light irradiation - without light irradiation) NAC (%) ([12]; single compound): 39.4%
NAC Depletion (%) ([12]; single compound): 58.0%
Difference in depletion (under light irradiation - without light irradiation) NAL (%) ([13]; single compound): 81.5%
NAL Depletion (%) ([13]; single compound): 5.0%
